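Five compound concentrations were applied to cells in 96-well plates for 48 hours; endpoints were derived by simple linear interpolation of the resulting dose-response curve. GI50 marks 50% less growth. TGI denotes the concentration required for complete inhibition of growth.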

Drawing on PubChem BioAssay (NCI), this text covers TGI and GI50 for 27 compounds.

Common to all, as to test: inhibition of tumour cell growth, NCI panel, 48 h
Assay [1] has as its system HCT-116 colon.
Assay [2] has as its system HCC-2998 colon.
The subject of assay [3] is CCRF-CEM leukemia.
In assay [4] the test system is HT29 colon.
Assay [5] has as its system NCI-H226 lung.
Assay [6] relates to M19-MEL melanoma.
Assay [7] has as its system OVCAR-3 ovarian.
The test system of assay [8] is HOP-92 NSCLC.
The test system of assay [9] is HL-60(TB) leukemia.
Assay [10] has as its system MOLT-4 leukemia.
Assay [11] relates to MDA-N.

As to `C#CCSc1nc(N)c2ncn(C3OC(COP(=O)(O)O)C(O)C3O)c2n1` (stereo not drawn), the TGI in [1], in assay [2], in assay [3], in assay [4], in [5] and in [6] was greater than 239 µM in each case. Besides, the TGI in assay [7], in assay [8], in [9] and in [10] was greater than 239 µM in each case.
Take `Nc1ccc(C(=O)NN2C(=O)C(Cl)C2c2cccc(O)c2)cc1` (stereo not drawn): the TGI in assay [1] was 25.8 µM; in assay [2], 29.8 µM; in assay [3], 28.9 µM; in assay [4] it was 35.2 µM; in assay [5] it was 41.4 µM; in assay [6] it was 38.3 µM. Further, the TGI in [7] was 29.9 µM; in assay [8] it was 35.4 µM; in [9] it was 8.76 µM; in assay [10], 41.1 µM.
For the compound `COc1ccc(-c2onc(-c3c(C)cc(C)cc3C)c2C2=NCCN2)cc1`, the TGI in assay [1] is greater than 100 µM; in assay [2], greater than 100 µM; in [3], greater than 100 µM; in [4], greater than 100 µM; in [5], 89.8 µM; in [6], greater than 100 µM. Also, the TGI is 59.3 µM in [9] and greater than 100 µM in assay [10].
In the case of `CC(=O)Nc1ccc(C(=O)NN2C(=O)C(Cl)C2c2ccc(O)cc2)cc1` (stereo not drawn), the TGI in assay [1], in assay [3], in [4], in [5], in [6] and in assay [7] was greater than 100 µM each time. In addition, the TGI in assay [9] and in assay [10] was greater than 100 µM each time.
For the compound `CC1=NN(C(=O)c2ccc(Cl)cc2)C(=O)/C1=C/c1ccc(Cl)cc1`, the TGI in assay [1], in [2], in assay [3], in assay [4], in assay [6] and in [7] was greater than 100 µM throughout. Moreover, the TGI in assay [8], in assay [9] and in assay [10] was greater than 100 µM each time.
For `Cc1ccc(N=C2SC(c3ccc(C)cc3)(c3ccc(C)cc3)c3ccccc32)cc1`, the TGI in assay [1], in assay [2], in assay [3], in assay [11], in assay [4] and in assay [5] was greater than 100 µM each time. The TGI in assay [7], in assay [8], in [9] and in assay [10] was greater than 100 µM in each case.
With `CCCCCn1c(=O)c2c(=O)[nH][nH]c2c2ccccc21`, the TGI in assay [1], in [2], in assay [3], in assay [11], in [4] and in assay [5] was greater than 100 µM throughout. Also, the TGI in assay [7], in assay [8], in assay [9] and in [10] was greater than 100 µM each time.
As for `CC1(C)CC2=C(Sc3ccccc3N2)C(=O)C1C(=O)C(=O)Nc1cc(Cl)ccc1Cl` (stereo not drawn), the TGI in [1], in assay [2], in assay [3], in [11], in assay [4] and in assay [5] was greater than 100 µM each time. Also, the TGI in [7], in assay [8], in assay [9] and in [10] was greater than 100 µM in each case.
In the case of `CC(NNC(=O)c1ccncc1)c1ccc(Cl)c(Cl)c1` (stereo not drawn), the TGI in [1], in [2], in assay [3], in [11], in [4] and in assay [5] was greater than 100 µM each time. The TGI in assay [7], in assay [8], in assay [9] and in [10] was greater than 100 µM in each case.
As for `Cn1c2c(c3ccccc31)CCN1C(=O)C3SC21C1C(=O)N(c2ccccc2)C(=O)C31` (stereo not drawn), the TGI in assay [1], in [2], in assay [3], in [11], in assay [4] and in assay [5] was greater than 100 µM in each case. Further, the TGI was greater than 100 µM in [7], greater than 86.7 µM in assay [8], greater than 77.3 µM in [9] and greater than 100 µM in assay [10]. For the same compound, the GI50 in [2] was greater than 100 µM; in assay [3] it was 53.4 µM.
In the case of `COP(=O)(OC)C(NC=O)P(=O)(OC)OC`, the TGI in assay [1], in assay [2], in assay [3], in assay [11], in assay [4] and in [5] was greater than 100 µM in each case. Besides, the TGI in assay [7], in assay [8], in [9] and in assay [10] was greater than 100 µM in each case.
As to `CC1C2CC(C/C2=N/O)C1(C)C` (stereo not drawn), the TGI in assay [1], in assay [2], in assay [3], in [11], in assay [4] and in [5] was greater than 100 µM in each case. The TGI in [7], in assay [8], in assay [9] and in assay [10] was greater than 100 µM throughout.
On to `Cc1nn(C(=O)c2ccncc2)c2c1C(c1cccc([N+](=O)[O-])c1)SC(N)=N2` (stereo not drawn), for which the TGI in [1], in [2], in assay [3], in assay [11], in [4] and in assay [5] was greater than 10 µM in each case. Besides, the TGI in assay [7], in [8], in [9] and in [10] was greater than 10 µM each time.
Turning to `CC(=O)CC(C)(C)NC(=O)[C@@]1(O)CC[C@H]2[C@@H]3CCC4=CC(=O)CC[C@@H]4[C@H]3CC[C@@]21C`, the TGI in assay [1], in assay [2], in [3], in assay [11], in assay [4] and in assay [5] was greater than 100 µM throughout. Besides, the TGI in [7], in assay [8], in assay [9] and in [10] was greater than 100 µM throughout.
`C[C@@H]1CC[C@@H](C)[C@](C)(CCc2ccoc2)C/C=C\C=C/1C(=O)O`: the TGI in [1], in assay [2], in assay [3], in [11], in assay [4] and in assay [5] was greater than 50 µM in each case. Also, the TGI in assay [7], in assay [8], in assay [9] and in assay [10] was greater than 50 µM throughout.
Consider `C/C(=C\Cc1cc(O)ccc1O)CCc1c(C)c(O)c(O)c(C=O)c1C`, for which the TGI in assay [1] was 40.3 µM; in assay [2], greater than 100 µM; in assay [3] it was 9.6 µM; in assay [4] it was 64.8 µM; in assay [5] it was 98 µM; in [6], 38.8 µM. For the same compound, the TGI is 43.2 µM in [7], 34.7 µM in [8], greater than 100 µM in [9] and greater than 100 µM in assay [10].
Turning to `S=C(N/N=C\c1ccccn1)N(Cc1ccccn1)Cc1ccccn1`, the TGI is 16.5 µM in assay [1]; greater than 43.1 µM in assay [2]; greater than 100 µM in [3]; 47.9 µM in assay [11]; 16.2 µM in assay [4]; 1.78 µM in assay [5]. The TGI in assay [7] was greater than 48.7 µM; in assay [8], 11.4 µM; in assay [9], greater than 100 µM; in assay [10], 19.4 µM.
For the compound `O=C(COc1ccc(Cl)cc1)N1CCN(C(=O)COc2ccc(Cl)cc2)c2ccccc21`, the TGI in assay [1], in assay [2], in [3], in assay [4], in assay [6] and in [7] was greater than 100 µM each time. Also, the TGI in assay [8] is greater than 100 µM; in assay [9], 37.2 µM; in assay [10], greater than 100 µM.
For `O/N=C1\CCc2nonc2\C1=N/Nc1ccccc1`, the TGI in assay [1], in [2], in [3], in [11], in assay [4] and in assay [5] was greater than 100 µM in each case. Further, the TGI in assay [7], in [8], in assay [9] and in assay [10] was greater than 100 µM throughout.
On to `CCOC(=O)/C(C#N)=C(/NNc1ccccc1)c1ccncc1C(=O)O`, for which the TGI was greater than 100 µM in assay [1]; greater than 95.6 µM in assay [2]; greater than 100 µM in [3]; greater than 100 µM in assay [11]; greater than 100 µM in assay [4]; greater than 100 µM in assay [5]. Further, the TGI in [7], in assay [8], in [9] and in [10] was greater than 100 µM in each case.
For `COc1ccc(/C(=N/Nc2nc3ccccc3[nH]2)C(=O)O)cc1`, the TGI in [1], in [2], in assay [3], in [11], in [4] and in assay [5] was greater than 100 µM in each case. Besides, the TGI in assay [7], in [8], in assay [9] and in [10] was greater than 100 µM throughout.
With `CC(=O)Nc1ccc(C(=O)N2N=C(C)/C(=C/c3cccc([N+](=O)[O-])c3)C2=O)cc1`, the TGI in assay [1], in assay [2], in assay [3], in assay [4], in assay [5] and in assay [6] was greater than 100 µM throughout. Moreover, the TGI in [7], in assay [9] and in [10] was greater than 100 µM in each case.
Turning to `CC1(C)CCCCCCCCCC(C)(CCCCCCCCCCCCO)C1=O` (stereo not drawn), the TGI in assay [1] stood at 31.7 µM; in [2], 13.7 µM; in assay [3], 50.7 µM; in assay [11], 33.7 µM; in assay [4] it was 31 µM; in assay [5], 22.5 µM. The TGI in assay [7] worked out at 29.4 µM; in assay [8], 31.7 µM; in assay [9], 38.3 µM; in assay [10], 76.7 µM.
`CN(CCc1ccc(Cl)c(Cl)c1)CCN(C)CCN1CCCC1`: the TGI stood at 18.7 µM in [1]; 4.5 µM in [2]; 14.6 µM in assay [3]; 3.74 µM in [11]; 12.5 µM in assay [4]; 38.5 µM in assay [5]. Also, the TGI in assay [7] came out at 70.4 µM; in assay [8], 16 µM; in assay [9] it was 31.7 µM; in [10], 20.1 µM.
As for `ONC1=Nc2ccccc2OCc2cc(Br)c(Br)cc2COc2ccccc2N=C1NO`, the TGI in [1] was 32.9 µM; in assay [2], 31.8 µM; in assay [3] it was greater than 34.1 µM; in assay [11], 34.1 µM; in assay [4] it was greater than 43.5 µM; in assay [5], greater than 52.7 µM. Besides, the TGI was greater than 48.1 µM in assay [7], 32 µM in assay [8], 25 µM in assay [9] and greater than 31.3 µM in assay [10].
In the case of `Cc1occ2c1C(=O)CC1C2[C@@H](O)CC2C(C)(C)CCC[C@]12C` (stereo partly drawn), the TGI in assay [1], in [2], in assay [3], in assay [4], in assay [5] and in assay [6] was greater than 100 µM in each case. Moreover, the TGI in assay [8], in [9] and in assay [10] was greater than 100 µM each time.
Take `COC1(C)C(=O)N2C1N(C(=O)OCc1ccccc1)CC2(C)C` (stereo not drawn): the TGI in assay [1], in assay [2], in assay [3], in [4], in [5] and in assay [6] was greater than 100 µM in each case. The TGI in [7], in assay [9] and in assay [10] was greater than 100 µM in each case.
